Data: patent US10239918B2, “Cahuitamycins and methods of making and using the same” (THE REGENTS OF THE UNIVERSITY OF MICHIGAN, priority 2015, dated 2019)
Where two headings read alike, the source gives them in different places.

Tests used:
[1] = reference value used for the calculation; cited from earlier work
A. baumannii growth = experiment: inhibition of A. baumannii growth; type: cell-based, Acinetobacter baumannii; settings: for effect on bacterial growth: A. baumannii, apo form
[2] = system: A. baumannii ATCC 17978 biofilm; experiment: flow cell biofilm assay; type: cell-based, Acinetobacter baumannii ATCC 17978; settings: 7.5 μg/ml in flow media
Method: (§1) Next, the specific stage of inhibition during biofilm formation was probed as well as the extent of inhibition through a flow cell assay. […] In addition, confocal microscope imaging analysis of the A. baumanii biofilm was conducted. In this assay, the biofilm was developed on a glass plate and left untreated as a control or treated with only 240 nM of 1 and 3. After treatment with STYO® 9 stain and propidium iodide (PI) the biofilm structure was observed.
Biofilms were formed by A. baumannii ATCC 17978 in flow chambers at room temperature. Images were taken at 1 h, 6 h and 24 h (by using a 60× lens) after inoculation. A flow cell biofilm was achieved by using a flow cell chamber (ACCFL0001, Life Science Incorporated, Greensboro, N.C.). Briefly, overnight cultures of A. baumannii ATCC 17978 grown in MHII broth at 37° C. were diluted 100 fold with fresh MHII broth. 1 ml of dilution was injected into a flow cell chamber and allowed to settle one hour for attaching of bacteria followed by initiation media flow. Flow media was 10% MHII broth (control), or 10% MHII broth with 7.5 μg/ml of desferoxamine, or MHII broth with 7.5 μg/ml of cahuitamycins A. The flow rate was 4 ml/hr. Micrographs of the biofilm were acquired at 1 h, 6 h and 24 h by using an Olympus IX70 microscope with 60× lens

[3] = system: A. baumannii biofilm formation; experiment: static biofilm assay, crystal violet staining and optical density; type: cell-based, Acinetobacter baumannii ATCC 17978; settings: for effect on biofilm formation: apo form; for IC50: Acinetobacter baumannii, read-out: IC50, inhibition of biofilm formation
Text: In an effort to discover new antibiotics, a marine microbial-derived NPE library was screened to identify biofilm inhibitors in A. baumannii. Natural products accounts for the majority of currently marketed drugs,^10 and the marine environment represents a potential new source of unique chemical entities.^11 A crystal violet based high throughput assay was used to query against a library of 9,831 marine microbial derived NPEs in order to identify the extracts inhibiting biofilm formation as primary screen. The active extracts obtained in primary high-throughput screening were further prioritized by setting the inhibition threshold to 50% followed by a dose response assay, yielding 31 active NPEs.
Primarily, the static biofilm assay using 1-3 was conducted using crystal violet staining followed by optical density measurements (FIG. 3). […] However, loss of inhibition of biofilm over time can be directly attributed to the metal-complexed cahuitamycins.
A static biofilm assay was developed from a previously reported method.^10 The biofilm assay measures the adhesion of bacteria to the surface of polystyrene 384 well microtiter plates. Adherent cells are detected by staining with Crystal Violet and subsequent washing to remove nonadherent planktonic cells. Inhibitors of biofilm formation prevent the bacteria from adhering to the surface of the microtiter plate and reduce the amount of Crystal Violet retained after washing. Assay quantification was performed by OD600 absorbance measurement of the Crystal Violet stained biofilm. The assay was optimized for plate surface treatment, time, temperature, media, media concentration, Crystal Violet concentration, wash method, inhibitor sensitivity, and culture inoculum preparation.
The A. baumannii test strain (ATCC 17978) was maintained as a frozen stock at −80° C. in 20% glycerol. On the morning of the assay, 5 ml of Mueller Hinton II cation adjusted media (Becton Dickinson cat. 212322) was inoculated and grown at 37° C., 180 rpm shaking for 4-6 h. The culture was then diluted 1:50 and incubated an additional 2 h. The resulting cells were washed four times by centrifugation and resuspension of the pellet in media was performed to remove any metabolites or cell signaling factors. The assay inoculum was prepared by diluting the cells to 0.008 OD600 in 10% Mueller Hinton II cation adjusted media (diluted in 18 ohm deionized water). The assay plates (Corning cat. 3680, 384 well non-treated polystyrene) were prepared by dispensing 20 μl of 10% Mueller Hinton II cation adjusted media into columns 1-22 using a Multidrop Combi dispenser (ThermoFisher). The natural product extract samples were added as 0.2 μl of 15 mg/ml stocks in DMSO using a Biomek FX high density pintool (Beckman Coulter). Column 1 and 2 contained DMSO without natural product extracts and served as the negative control. The positive control was added to column 23 and 24 as 20 μl of 40 μM Baicalein (Sigma-Aldrich cat. 11712). The bacterial cells were added to the entire plate in 20 μl of the prepared inoculum using a Multidrop Combi dispenser (ThermoFisher). The resulting assay contained 40 μl of 10% Mueller Hinton II cation adjusted media with 0.004 OD600 bacterial cells, 0.5% DMSO, and 75 μg/ml natural product extract. The assay plates were incubated at 30° C. for 20 h, stationary, in a humidified incubator. The biofilm was stained by adding 10 μl of filtered 1% Crystal Violet and incubating for 30 minutes at room temperature. Excess Crystal Violet and nonadherent planktonic cells were removed by washing three times with 150 μl of PBS using an ELX405 plate washer (Biotek). The wash program used a low velocity dispense rate and an aspiration height of 3.8 mm; about 10 μl of PBS remained in the well after washing. The Crystal Violet stained biofilm was solubilized by the addition of 50 μl of 100% ethanol and allowed to develop overnight. Quantification was performed by measuring the OD600 absorbance using a Pherastar plate reader (BMG). […]

[4] = competition titrations with EDTA to determine iron-binding affinity (pFeIII); type: physicochemical; settings: competition titration of Fe-cahuitamycin complex with EDTA, Hepes buffer pH 7.4, UV-vis; three individual titrations
Method: Determination of pFe^III for cahuitamycins was carried out as reported by Abergel et al. J. Am. […] Briefly, purified Fe-cahuitamycins, prepared as described above, was dissolved in Hepes buffer (10 mM Hepes, 0.1 M KCl, pH 7.4) and five different concentration ranges of ETDA were added from EDTA stock solutions also prepared in HEPES buffer. Each reaction consisted of a total volume of 0.25 mL, a final concentration of 0.1 mM Fe-cahuitamycins and a range of 5-fold-8000-fold EDTA (relative to Fe-cahuitamycins) in Hepes buffer. The reaction was allowed to equilibrate at room temperature for at least 24 h, and UV-visible spectra were subsequently recorded. The composite spectra contain contributions from both Fe-EDTA and Fe-cahuitamycins. The ε of both species as a function of λ, were determined in Hepes buffer and used to deconvolute the spectra. The contribution of Fe-cahuitamycins was subtracted from the composite spectra using the 435 nm absorption band and the ε of both Fe-cahuitamycins and Fe-EDTA were used to quantify the proportion of each species in solution. Concentrations of apo-EDTA and apo-cahuitamycins were calculated by subtracting [Fe-EDTA] (or [Fe-cahuitamycins]) from total initial EDTA (or Fe cahuitamycins). The log [EDTA]/[cahuitamycins] was plotted against log [Fe-EDTA]/[Fe-cahuitamycins] and the data were fit to the following equation, which has been derived by Abergel et al., J. Am.

A. baumanii biofilm = experiment: confocal microscope imaging of biofilm on glass plate (SYTO 9 / propidium iodide); type: cell-based, Acinetobacter baumannii; settings: glass plate treated with 240 nM
Method: as §1

[5] = compound tested in iron-complexed form
[6] = static biofilm assay, A. baumannii

SMILES: O=C(O)CN(CCN(CC(=O)O)CC(=O)O)CC(=O)O [EDTA]
- pFe^III (known stability constants for EDTA) [1]: 23.42

SMILES: O=CN(O)CCC[C@@H](NC(=O)[C@H](CO)NC(=O)[C@@H]1COC(c2ccccc2O)=N1)C(=O)N1NCCC[C@@H]1C(=O)NCCC(=O)O [compound 1, Cahuitamycin A]
- impact on growth, iron-complexed form (A. baumannii growth; [5]): almost no impact
- biofilm state in flow cell after 6 h of supplementation [2]: only a few micro colonies
- biofilm state in flow cell after 24 h of supplementation [2]: larger micro colonies and initiation of biofilm formation
- impact on biofilm formation, iron-complexed form [3, 5]: almost no impact
- effect on biofilm formation [3, 6]: able to inhibit
- pFe^III [4]: 18.34±0.16
- biofilm thickness compared with the control (A. baumanii biofilm): much thinner biofilm
- total biomass compared with the control (A. baumanii biofilm): significantly less total biomass
- total biomass of biofilm (A. baumanii biofilm): 0.18 μm^3

SMILES: O=CN(O)CCC[C@@H](NC(=O)[C@H](CO)NC(=O)[C@H](CO)NC(=O)c1ccccc1O)C(=O)N1NCCC[C@@H]1C(=O)NCCC(=O)O [compound 2, Cahuitamycin B]
- effect on bacterial growth (A. baumannii growth): no effects
- effect on biofilm formation [3, 6]: no effects
- pFe^III [4]: 20.42±0.09

SMILES: Cc1cccc(O)c1C1=N[C@H](C(=O)N[C@@H](CO)C(=O)N[C@H](CCCN(O)C=O)C(=O)N2NCCC[C@@H]2C(=O)NCCC(=O)O)CO1 [compound 3, Cahuitamycin C]
- effect on bacterial growth (A. baumannii growth): limited effect
- IC50 [3, 6]: 14.5 µM
- pFe^III [4]: 17.52±0.12
- biofilm thickness compared with the control (A. baumanii biofilm): much thinner biofilm
- total biomass compared with the control (A. baumanii biofilm): significantly less total biomass
- total biomass of biofilm (A. baumanii biofilm): 0.10 μm^3

SMILES: Cc1ccc(O)c(C2=N[C@H](C(=O)N[C@@H](CO)C(=O)N[C@H](CCCN(O)C=O)C(=O)N3NCCC[C@@H]3C(=O)NCCC(=O)O)CO2)c1 [compound 4, Cahuitamycin D]
- IC50 [3, 6]: 8.4 µM
- potency as biofilm inhibitor compared to 3 (cahuitamycin C) ([3]; static biofilm assay): almost twice the potency
- potency as biofilm inhibitor compared to 3 (cahuitamycin C) ([3]; static biofilm assay, listed as cahuitamycin analog D): twice as active

SMILES: O=CN(O)CCC[C@@H](NC(=O)[C@H](CO)NC(=O)[C@H](CO)NC(=O)c1ccccc1O)C(=O)N[C@H](CCCNO)C(=O)NCCC(=O)O [compound 5, Cahuitamycin E]
- IC50 [3]: 10.5 µM

SMILES: CC(=O)N(O)CCCCCNC(=O)CCC(=O)N(O)CCCCCNC(=O)CCC(=O)N(O)CCCCCN [desferoxamine, reference compound]
- biofilm state in flow cell after 6 h of supplementation [2]: formation of a robust biofilm
- biofilm state in flow cell after 24 h of supplementation [2]: biofilm became thicker
